pIC50: −log10 of the molar value.
Target: T1, RIPK2 enzyme (Homo sapiens, UniProt O43353)
T1 construct: purchased Carna 09-128
Experiment: RIPK2 inhibition (ADP-Glo Kinase Assay)
Type: biochemical
Settings: RIPK2 5 nM, ATP 150 μM, MBP substrate, read-out: RIPK2 IC50
In short: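 Human RIPK2 (5 nM) preincubated with compound 30 min at room temperature in 50 mM HEPES pH 7.5, 10 mM MgCl2, 2 mM DTT, 1 mM EGTA, 0.01% Brij-35, 0.05% BSA; native swine MBP as substrate. ADP formed quantified by ADP-Glo luminescence; percent inhibition relative to DMSO and no-enzyme controls.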

T1 sequence (O43353 1-299 limits assumed): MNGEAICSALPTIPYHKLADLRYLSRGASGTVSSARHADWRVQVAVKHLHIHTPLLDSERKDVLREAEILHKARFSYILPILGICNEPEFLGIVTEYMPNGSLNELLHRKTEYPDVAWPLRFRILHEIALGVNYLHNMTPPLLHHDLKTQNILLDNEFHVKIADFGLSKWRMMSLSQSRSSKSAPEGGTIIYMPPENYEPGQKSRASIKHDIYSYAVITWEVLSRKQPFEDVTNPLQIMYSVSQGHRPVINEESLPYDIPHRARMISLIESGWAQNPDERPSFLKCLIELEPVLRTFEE

Row | pIC50 | Structure (SMILES)
1 | > 8.60 | CCN1CCC(Oc2ccc3nccc(Oc4ccc(CC(=O)Nc5cnn(C(C)(C)C)c5)cc4C)c3c2)CC1 [Compound 94, N-(1-(tert-butyl)-1H-pyrazol-4-yl)-2-(4-((6-((1-ethylpiperidin-4-yl)oxy)quinolin-4-yl)oxy)-3-methylphenyl) acetamide]
2 | 8.52 | Cc1cc(CC(=O)Nc2noc(C(C)(C)C)n2)ccc1Oc1ncnc2ccc(OC3CCN(C)CC3)cc12 [Compound 184, N-(5-(tert-butyl)-1,2,4-oxadiazol-3-yl)-2-(3-methyl-4-((6-((1-methylpiperidin-4-yl)oxy)quinazolin-4-yl)oxy)phenyl) acetamide]
3 | > 8.60 | Cc1c(Oc2ccnc3ccc(C(=O)NC4CNC4)cc23)ccc(CC(=O)Nc2cnn(C(C)(C)C)c2)c1F [Compound 405, N-(azetidin-3-yl)-4-(4-(2-((1-(tert-butyl)-1H-pyrazol-4-yl)amino)-2-oxoethyl)-3-fluoro-2-methylphenoxy)quinoline-6-carboxamide]
4 | > 8.60 | CCn1nc(NC(=O)Cc2ccc(Oc3ccnc4ccc(S(C)(=O)=O)cc34)c(C)c2)cc1C(C)(C)C [Compound 232, N-(5-(tert-butyl)-1-ethyl-1H-pyrazol-3-yl)-2-(3-methyl-4-((6-(methylsulfonyl)quinolin-4-yl)oxy)phenyl)acetamide]
5 | > 8.60 | Cc1cc(CC(=O)Nc2cnn(C(C)(C)C)c2)c(F)cc1Oc1ccnc2ccc(C(=O)NC3CC(F)(F)C3)cc12 [Compound 398, 4-(4-(2-((1-(tert-butyl)-1H-pyrazol-4-yl)amino)-2-oxoethyl)-5-fluoro-2-methyl-phenoxy)-N-(3,3-difluoro-cyclobutyl) quinoline-6-carboxamide]
6 | > 8.60 | Cc1cc(CC(=O)Nc2cnn(C(C)(C)C)c2)ccc1Oc1ccnc2ccc(O[C@H]3CC[C@@H](N)CC3)cc12 [Compound 121, 2-(4-((6-(((1s,4s)-4-aminocyclo-hexyl)oxy)quinolin-4-yl)oxy)-3-methyl-phenyl)-N-(1-(tert-butyl)-1H-pyrazol-4-yl)acetamide]
7 | 7.27 | Cc1cc(CC(=O)Nc2cc(C(C)(C)C)ncn2)ccc1Oc1ncnc2ccc(F)cc12 [Compound 54, N-(6-(tert-butyl)pyrimidin-4-yl)-2-(4-((6-fluoroquinazolin-4-yl)oxy)-3-methylphenyl) acetamide]
8 | > 8.60 | Cc1cc(CC(=O)Nc2cnn(C(C)(C)C)c2)ccc1Oc1ccnc2ccc(-c3ncc[nH]c3=O)cc12 [Compound 247, N-(1-(tert-butyl)-1H-pyrazol-4-yl)-2-(3-methyl-4-((6-(3-oxo-3,4-dihydropyrazin-2-yl)quinolin-4-yl)oxy)phenyl)acetamide]
9 | > 8.60 | CN=S(C)(=O)c1ccc2nccc(Oc3ccc(CC(=O)Nc4cnn(C(C)(C)C)c4)cc3C)c2c1 (stereo not shown) [Compound 77, N-(1-(tert-butyl)-1H-pyrazol-4-yl)-2-(4-((6-(N,S-dimethylsulfonimidoyl)quinolin-4-yl)oxy)-3-methylphenyl)acetamide]
10 | > 8.60 | Cc1cc(CC(=O)Nc2cnn(C(C)(C)C)c2)ccc1Oc1ccnc2ccc(NS(C)(=O)=O)cc12 [Compound 264, N-(1-(tert-butyl)-1H-pyrazol-4-yl)-2-(3-methyl-4-((6-(methylsulfonamido)quinolin-4-yl)oxy)phenyl) acetamide]
11 | 7.90 | COc1ccc2ncnc(Oc3ccc(CC(=O)Nc4cc(C(C)(C)C)ccn4)c(F)c3)c2c1 [Compound 28, N-(4-(tert-butyl)pyridin-2-yl)-2-(2-fluoro-4-((6-methoxy-quinazolin-4-yl)oxy)phenyl) acetamide]
12 | > 8.60 | Cc1c(Oc2ncnc3ccc(OC4CCN(C)CC4)cc23)ccc(CC(=O)Nc2cnn(C(C)(C)C)c2)c1F [Compound 107, N-(1-(tert-butyl)-1H-pyrazol-4-yl)-2-(2-fluoro-3-methyl-4-((6-((1-methyl-piperidin-4-yl)oxy)quinazolin-4-yl)oxy)phenyl) acetamide]
13 | 7.61 | Cc1cc(CC(=O)Nc2cc(C(C)(C)C)cnn2)ccc1Oc1ncnc2ccc(F)cc12 [Compound 55, N-(5-(tert-butyl)pyridazin-3-yl)-2-(4-((6-fluoroquinazolin-4-yl)oxy)-3-methylphenyl) acetamide]
14 | > 8.60 | Cc1cc(CC(=O)Nc2cnn(C(C)(C)C)c2)c(F)cc1Oc1ccnc2ccc(-c3ncn(C)n3)cc12 [Compound 427, N-(1-(tert-butyl)-1H-pyrazol-4-yl)-2-(2-fluoro-5-methyl-4-((6-(1-methyl-1H-1,2,4-triazol-3-yl)quinolin-4-yl)oxy)phenyl)acetamide]
15 | > 8.60 | COC(C)(C)c1ccc2nccc(Oc3ccc(CC(=O)Nc4cnn(C(C)(C)C)c4)c(F)c3C)c2c1 [Compound 303, N-(1-(tert-butyl)-1H-pyrazol-4-yl)-2-(2-fluoro-4-((6-(2-methoxypropan-2-yl)quinolin-4-yl)oxy)-3-methylphenyl)acetamide]
16 | 8.42 | Cc1cc(CC(=O)Nc2cnn(C(C)(C)C)c2)ccc1Oc1ccnc2ccc(-c3cccn(C)c3=O)cc12 [Compound 246, N-(1-(tert-butyl)-1H-pyrazol-4-yl)-2-(3-methyl-4-((6-(1-methyl-2-oxo-1,2-dihydropyridin-3-yl)quinolin-4-yl)oxy)phenyl)acetamide]
17 | > 8.60 | Cc1cc(CC(=O)Nc2cnn(C(C)(C)C)c2)c(F)cc1Oc1ccnc2ccc(C(=O)N3CCC(O)CC3)cc12 [Compound 380, N-(1-(tert-butyl)-1H-pyrazol-4-yl)-2-(2-fluoro-4-((6-(4-hydroxy-piperidine-1-carbonyl)quinolin-4-yl)oxy)-5-methyl-phenyl) acetamide]
18 | 8.16 | CC(C)(C)n1cc(NC(=O)Cc2ccc(Oc3ccnc4ccc(S(C)(=N)=O)cc34)cc2F)cn1 (single isomer, unassigned) [Compound 69, N-(1-(tert-butyl)-1H-pyrazol-4-yl)-2-(2-fluoro-4-((6-(S-methylsulfonimidoyl)quinolin-4-yl)oxy)phenyl)acetamide]
19 | > 8.60 | Cc1cc(CC(=O)Nc2cnn(C(C)(C)C)c2)c(F)cc1Oc1ccnc2ccc(C(=O)N[C@H]3C[C@H](O)C3)cc12 [Compound 393, 4-(4-(2-((1-(tert-butyl)-1H-pyrazol-4-yl)amino)-2-oxoethyl)-5-fluoro-2-methyl-phenoxy)-N-((1r,3r)-3-hydroxy-cyclobutyl) quinoline-6-carboxamide]
20 | 8.49 | CCS(=N)(=O)c1ccc2nccc(Oc3ccc(CC(=O)Nc4cnn(C(C)(C)C)c4)c(F)c3)c2c1 (stereo not shown) [Compound 73, N-(1-(tert-butyl)-1H-pyrazol-4-yl)-2-(4-((6-(ethylsulfonimidoyl)quinolin-4-yl)oxy)-2-fluorophenyl) acetamide]
21 | > 8.60 | Cc1c(Oc2ccnc3ccc(S(=O)(=O)C4CCOCC4)cc23)ccc(CC(=O)Nc2cnn(C(C)(C)C)c2)c1F [Compound 249, N-(1-(tert-butyl)-1H-pyrazol-4-yl)-2-(2-fluoro-3-methyl-4-((6-((tetrahydro-2H-pyran-4-yl)sulfonyl)quinolin-4-yl)oxy)phenyl)acetamide]
22 | > 8.60 | Cc1cc(CC(=O)Nc2cnn(C(C)(C)C)c2)c(F)cc1Oc1ccnc2ccc(C(=O)N3CCCC3)cc12 [Compound 377, N-(1-(tert-butyl)-1H-pyrazol-4-yl)-2-(2-fluoro-5-methyl-4-((6-(pyrrolidine-1-carbonyl)quinolin-4-yl)oxy)phenyl) acetamide]
